According to ChEMBL document CHEMBL3991601, “The target landscape of clinical kinase drugs” (Science, 2017):
Calls of active or inactive are those of the source. Cut-off read from the data, not from the text of the source, for most assays here: actives have a measured Kd and inactives only a lower limit.

Assays:
[1] = target: Cyclin-dependent kinase 13 (Homo sapiens, UniProt Q14004)
Ephrin type-B receptor 6 = target: T1, Ephrin type-B receptor 6 (Homo sapiens, UniProt O15197)
T1 sequence (O15197 whole entry): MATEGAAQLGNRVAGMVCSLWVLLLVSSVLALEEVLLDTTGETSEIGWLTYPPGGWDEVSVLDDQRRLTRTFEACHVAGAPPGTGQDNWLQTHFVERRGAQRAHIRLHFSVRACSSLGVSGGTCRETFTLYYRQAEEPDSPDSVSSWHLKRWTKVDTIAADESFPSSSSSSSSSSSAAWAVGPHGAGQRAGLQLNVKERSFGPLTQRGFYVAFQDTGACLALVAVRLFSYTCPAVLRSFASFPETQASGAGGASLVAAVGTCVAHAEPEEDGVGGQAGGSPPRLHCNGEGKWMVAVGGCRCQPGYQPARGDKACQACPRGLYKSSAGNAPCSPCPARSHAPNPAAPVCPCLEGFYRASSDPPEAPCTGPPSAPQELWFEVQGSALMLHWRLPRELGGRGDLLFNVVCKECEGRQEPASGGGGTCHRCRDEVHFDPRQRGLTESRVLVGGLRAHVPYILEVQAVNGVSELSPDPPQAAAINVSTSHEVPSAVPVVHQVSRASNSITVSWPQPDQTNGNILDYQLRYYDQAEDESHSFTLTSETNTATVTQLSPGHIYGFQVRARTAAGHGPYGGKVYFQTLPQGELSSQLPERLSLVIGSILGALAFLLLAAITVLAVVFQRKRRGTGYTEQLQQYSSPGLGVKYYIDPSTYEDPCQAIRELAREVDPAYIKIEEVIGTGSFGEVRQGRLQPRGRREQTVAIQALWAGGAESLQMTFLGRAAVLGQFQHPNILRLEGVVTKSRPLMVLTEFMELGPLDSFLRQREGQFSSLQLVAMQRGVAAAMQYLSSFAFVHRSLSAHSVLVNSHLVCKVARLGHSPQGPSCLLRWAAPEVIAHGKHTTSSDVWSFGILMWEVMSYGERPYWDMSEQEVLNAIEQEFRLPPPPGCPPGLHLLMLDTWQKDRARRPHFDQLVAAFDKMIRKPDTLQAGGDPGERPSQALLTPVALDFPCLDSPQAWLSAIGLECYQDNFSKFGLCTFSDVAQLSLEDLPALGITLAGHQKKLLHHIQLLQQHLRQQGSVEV

[2] = target: T2, Serine/threonine-protein kinase 4 (Homo sapiens, UniProt Q13043)
T2 sequence (Q13043 whole entry): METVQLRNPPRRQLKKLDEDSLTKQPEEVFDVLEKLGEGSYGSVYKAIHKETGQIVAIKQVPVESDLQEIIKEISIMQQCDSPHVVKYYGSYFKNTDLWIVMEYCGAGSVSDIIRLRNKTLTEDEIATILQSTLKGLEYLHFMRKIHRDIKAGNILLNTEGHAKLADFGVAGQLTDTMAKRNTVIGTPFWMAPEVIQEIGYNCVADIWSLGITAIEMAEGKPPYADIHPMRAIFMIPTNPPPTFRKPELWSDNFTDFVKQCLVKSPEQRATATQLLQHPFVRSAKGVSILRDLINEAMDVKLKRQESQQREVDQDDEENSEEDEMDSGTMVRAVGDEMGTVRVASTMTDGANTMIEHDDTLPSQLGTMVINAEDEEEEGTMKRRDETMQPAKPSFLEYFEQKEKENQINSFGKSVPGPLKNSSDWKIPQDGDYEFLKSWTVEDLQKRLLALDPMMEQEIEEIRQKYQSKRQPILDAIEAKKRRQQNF

[3] = target: High affinity nerve growth factor receptor (Homo sapiens, UniProt P04629)
Chain of High affinity nerve growth factor receptor (P04629 whole entry): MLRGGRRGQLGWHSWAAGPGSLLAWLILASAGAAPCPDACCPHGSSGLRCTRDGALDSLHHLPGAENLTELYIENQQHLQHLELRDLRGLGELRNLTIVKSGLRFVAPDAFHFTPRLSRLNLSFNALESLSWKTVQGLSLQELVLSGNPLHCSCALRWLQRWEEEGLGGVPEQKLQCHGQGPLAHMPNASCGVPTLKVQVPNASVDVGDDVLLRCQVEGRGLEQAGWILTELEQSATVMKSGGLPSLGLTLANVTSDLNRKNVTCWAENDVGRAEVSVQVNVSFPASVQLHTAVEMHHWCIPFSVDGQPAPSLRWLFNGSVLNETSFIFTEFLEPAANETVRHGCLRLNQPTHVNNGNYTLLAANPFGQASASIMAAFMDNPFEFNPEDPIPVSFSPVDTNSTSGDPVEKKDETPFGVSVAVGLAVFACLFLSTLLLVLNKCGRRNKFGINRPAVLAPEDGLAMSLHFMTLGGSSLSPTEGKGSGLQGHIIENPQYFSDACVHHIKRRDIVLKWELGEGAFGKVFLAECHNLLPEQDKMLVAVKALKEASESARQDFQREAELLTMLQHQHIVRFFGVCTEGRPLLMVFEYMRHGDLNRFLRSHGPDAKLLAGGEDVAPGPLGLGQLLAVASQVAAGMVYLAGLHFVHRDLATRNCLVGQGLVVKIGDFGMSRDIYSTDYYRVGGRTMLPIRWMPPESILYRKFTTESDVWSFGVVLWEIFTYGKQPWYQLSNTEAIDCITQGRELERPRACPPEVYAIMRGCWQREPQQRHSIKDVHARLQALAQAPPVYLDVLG

[4] = target: BMP-2-inducible protein kinase (Homo sapiens, UniProt Q9NSY1)
Chain of BMP-2-inducible protein kinase (Q9NSY1 whole entry): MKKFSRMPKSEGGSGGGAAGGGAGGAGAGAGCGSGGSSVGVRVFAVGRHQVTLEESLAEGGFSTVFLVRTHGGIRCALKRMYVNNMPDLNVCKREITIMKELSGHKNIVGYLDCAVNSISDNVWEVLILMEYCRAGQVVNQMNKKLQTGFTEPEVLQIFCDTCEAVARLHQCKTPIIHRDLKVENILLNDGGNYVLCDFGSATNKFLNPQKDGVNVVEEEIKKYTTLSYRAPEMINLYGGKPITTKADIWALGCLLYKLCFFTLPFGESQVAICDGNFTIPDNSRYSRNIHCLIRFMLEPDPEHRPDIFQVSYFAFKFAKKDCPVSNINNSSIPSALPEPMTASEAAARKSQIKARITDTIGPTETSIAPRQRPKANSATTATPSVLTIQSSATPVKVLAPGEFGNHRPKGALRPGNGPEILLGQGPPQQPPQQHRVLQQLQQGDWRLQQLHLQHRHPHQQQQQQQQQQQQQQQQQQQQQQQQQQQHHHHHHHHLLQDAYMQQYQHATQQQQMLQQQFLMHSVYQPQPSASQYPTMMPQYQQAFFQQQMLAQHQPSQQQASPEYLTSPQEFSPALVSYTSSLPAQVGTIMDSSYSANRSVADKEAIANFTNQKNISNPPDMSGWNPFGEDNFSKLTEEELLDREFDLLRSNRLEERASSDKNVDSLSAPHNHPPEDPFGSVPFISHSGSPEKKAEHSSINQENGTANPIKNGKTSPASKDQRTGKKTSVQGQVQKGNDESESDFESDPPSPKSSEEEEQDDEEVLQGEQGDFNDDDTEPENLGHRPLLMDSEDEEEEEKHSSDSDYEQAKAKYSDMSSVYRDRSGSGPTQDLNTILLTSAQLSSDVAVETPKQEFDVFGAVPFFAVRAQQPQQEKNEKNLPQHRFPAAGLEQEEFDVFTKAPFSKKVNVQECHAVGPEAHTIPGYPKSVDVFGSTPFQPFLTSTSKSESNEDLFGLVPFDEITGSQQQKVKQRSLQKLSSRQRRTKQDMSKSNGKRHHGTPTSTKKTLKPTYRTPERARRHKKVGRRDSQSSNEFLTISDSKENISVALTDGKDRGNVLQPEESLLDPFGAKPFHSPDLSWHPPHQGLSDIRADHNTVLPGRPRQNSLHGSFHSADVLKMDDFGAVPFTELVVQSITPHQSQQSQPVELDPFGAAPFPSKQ

Ephrin type-B receptor 2 = target: T3, Ephrin type-B receptor 2 (Homo sapiens, UniProt P29323)
T3 sequence (P29323 whole entry): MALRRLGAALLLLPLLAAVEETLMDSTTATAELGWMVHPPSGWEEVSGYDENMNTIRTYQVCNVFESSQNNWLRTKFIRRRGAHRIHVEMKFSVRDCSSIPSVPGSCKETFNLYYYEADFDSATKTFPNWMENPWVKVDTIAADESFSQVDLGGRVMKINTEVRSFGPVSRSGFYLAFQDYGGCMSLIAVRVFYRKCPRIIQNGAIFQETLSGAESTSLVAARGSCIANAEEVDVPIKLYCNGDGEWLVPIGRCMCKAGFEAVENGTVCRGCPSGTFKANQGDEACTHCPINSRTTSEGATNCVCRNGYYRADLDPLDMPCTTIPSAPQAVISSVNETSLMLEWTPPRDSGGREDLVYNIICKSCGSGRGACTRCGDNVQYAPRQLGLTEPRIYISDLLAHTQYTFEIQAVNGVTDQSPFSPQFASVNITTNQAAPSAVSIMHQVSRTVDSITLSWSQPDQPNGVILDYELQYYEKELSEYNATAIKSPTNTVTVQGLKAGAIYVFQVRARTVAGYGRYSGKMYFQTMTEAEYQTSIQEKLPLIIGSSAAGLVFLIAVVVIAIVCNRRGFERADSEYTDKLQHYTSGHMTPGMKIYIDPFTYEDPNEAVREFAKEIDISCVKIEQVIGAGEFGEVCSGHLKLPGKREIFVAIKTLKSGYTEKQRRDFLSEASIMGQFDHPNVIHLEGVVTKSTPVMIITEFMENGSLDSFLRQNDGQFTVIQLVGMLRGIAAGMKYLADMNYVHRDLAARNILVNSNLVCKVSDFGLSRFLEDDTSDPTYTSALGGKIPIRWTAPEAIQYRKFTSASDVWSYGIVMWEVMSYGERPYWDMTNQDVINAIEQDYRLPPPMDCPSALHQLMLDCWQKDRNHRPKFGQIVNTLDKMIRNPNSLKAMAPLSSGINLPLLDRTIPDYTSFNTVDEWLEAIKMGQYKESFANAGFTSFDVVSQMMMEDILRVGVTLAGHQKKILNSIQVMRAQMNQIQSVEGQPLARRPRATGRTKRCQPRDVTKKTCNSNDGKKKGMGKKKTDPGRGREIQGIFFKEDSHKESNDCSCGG

[5] = target: G protein-coupled receptor kinase 6 (Homo sapiens, UniProt P43250)
Chain of G protein-coupled receptor kinase 6 (P43250 whole entry): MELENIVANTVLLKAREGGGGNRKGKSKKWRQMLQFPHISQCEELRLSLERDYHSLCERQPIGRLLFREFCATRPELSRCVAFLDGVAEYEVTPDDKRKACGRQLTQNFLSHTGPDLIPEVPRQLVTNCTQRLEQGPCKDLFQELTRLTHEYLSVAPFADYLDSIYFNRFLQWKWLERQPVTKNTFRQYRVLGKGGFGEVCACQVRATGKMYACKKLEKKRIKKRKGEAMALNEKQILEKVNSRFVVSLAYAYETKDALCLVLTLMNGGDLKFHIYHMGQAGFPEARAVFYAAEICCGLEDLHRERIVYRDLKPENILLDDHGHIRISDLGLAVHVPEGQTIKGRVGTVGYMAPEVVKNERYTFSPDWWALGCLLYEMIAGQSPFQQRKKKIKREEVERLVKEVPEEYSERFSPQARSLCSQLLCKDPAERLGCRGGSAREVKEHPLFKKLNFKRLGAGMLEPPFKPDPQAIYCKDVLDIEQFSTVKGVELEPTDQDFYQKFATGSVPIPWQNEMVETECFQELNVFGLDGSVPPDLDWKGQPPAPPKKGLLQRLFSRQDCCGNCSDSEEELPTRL
Note: in the data inactive means no Kd found up to 30 µM.

Chain of Cyclin-dependent kinase 13 (Q14004 whole entry): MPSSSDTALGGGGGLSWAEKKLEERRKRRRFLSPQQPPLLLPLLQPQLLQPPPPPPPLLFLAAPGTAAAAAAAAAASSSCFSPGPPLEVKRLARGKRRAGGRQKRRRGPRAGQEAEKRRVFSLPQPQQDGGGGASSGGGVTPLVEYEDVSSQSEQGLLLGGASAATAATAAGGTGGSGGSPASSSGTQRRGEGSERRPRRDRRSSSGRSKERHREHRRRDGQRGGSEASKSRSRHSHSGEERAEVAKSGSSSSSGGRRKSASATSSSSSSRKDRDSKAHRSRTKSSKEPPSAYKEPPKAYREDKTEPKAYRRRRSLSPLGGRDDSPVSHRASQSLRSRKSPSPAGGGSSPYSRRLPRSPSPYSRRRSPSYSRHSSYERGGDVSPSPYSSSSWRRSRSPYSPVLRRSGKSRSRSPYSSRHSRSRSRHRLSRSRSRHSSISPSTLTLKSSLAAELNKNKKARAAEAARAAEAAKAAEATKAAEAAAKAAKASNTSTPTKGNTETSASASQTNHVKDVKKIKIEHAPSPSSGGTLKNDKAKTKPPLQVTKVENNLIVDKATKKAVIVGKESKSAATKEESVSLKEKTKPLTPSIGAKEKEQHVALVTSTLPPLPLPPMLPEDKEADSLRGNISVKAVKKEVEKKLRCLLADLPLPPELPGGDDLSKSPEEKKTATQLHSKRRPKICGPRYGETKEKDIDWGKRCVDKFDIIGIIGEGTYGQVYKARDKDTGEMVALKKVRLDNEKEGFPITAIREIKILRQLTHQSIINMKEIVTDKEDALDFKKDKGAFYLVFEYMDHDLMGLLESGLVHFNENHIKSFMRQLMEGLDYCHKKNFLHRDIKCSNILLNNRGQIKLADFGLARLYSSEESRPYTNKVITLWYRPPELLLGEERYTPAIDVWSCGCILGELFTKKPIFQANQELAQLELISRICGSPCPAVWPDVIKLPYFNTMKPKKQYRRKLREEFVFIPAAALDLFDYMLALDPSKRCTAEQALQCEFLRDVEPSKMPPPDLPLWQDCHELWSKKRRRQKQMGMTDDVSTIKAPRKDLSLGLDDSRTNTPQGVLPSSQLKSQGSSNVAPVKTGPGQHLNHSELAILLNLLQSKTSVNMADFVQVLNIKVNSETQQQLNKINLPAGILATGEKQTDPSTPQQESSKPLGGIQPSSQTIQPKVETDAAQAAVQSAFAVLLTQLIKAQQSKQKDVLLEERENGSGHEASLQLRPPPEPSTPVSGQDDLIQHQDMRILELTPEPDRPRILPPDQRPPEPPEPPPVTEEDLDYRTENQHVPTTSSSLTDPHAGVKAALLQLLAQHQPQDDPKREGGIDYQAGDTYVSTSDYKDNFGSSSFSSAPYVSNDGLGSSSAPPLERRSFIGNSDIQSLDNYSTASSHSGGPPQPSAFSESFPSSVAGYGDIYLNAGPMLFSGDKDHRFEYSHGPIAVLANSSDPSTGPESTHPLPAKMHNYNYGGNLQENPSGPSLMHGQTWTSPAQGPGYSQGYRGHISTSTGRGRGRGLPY

| Kd [1] | Kd (Ephrin type-B receptor 6) | Kd [2] | Kd [3] | Kd [4] | Kd (Ephrin type-B receptor 2) | Kd [5] | Compound |
| --- | --- | --- | --- | --- | --- | --- | --- |
| > 30 µM (inactive) | > 30 µM (inactive) | > 30 µM (inactive) | > 30 µM (inactive) | > 30 µM (inactive) | > 30 µM (inactive) | > 30 µM (inactive) | C#Cc1cccc(Nc2ncnc3cc(OC)c(OCCCCCCC(=O)NO)cc23)c1 [CUDC-101] |
| > 30 µM (inactive) | > 30 µM (inactive) | > 30 µM (inactive) | > 30 µM (inactive) | > 30 µM (inactive) | > 30 µM (inactive) | > 30 µM (inactive) | COc1ccc(S(=O)(=O)N(C(C)=O)c2ccccc2/C=C/c2cc[n+]([O-])cc2)cc1 [HMN-214] |
| > 30 µM (inactive) | > 30 µM (inactive) | > 30 µM (inactive) | > 30 µM (inactive) | > 30 µM (inactive) | > 30 µM (inactive) | > 30 µM (inactive) | NC1(c2ccc(-c3nc4ccn5c(=O)[nH]nc5c4cc3-c3ccccc3)cc2)CCC1 [MK-2206] |
| > 30 µM (inactive) | > 30 µM (inactive) | > 30 µM (inactive) | > 30 µM (inactive) | > 30 µM (inactive) | > 30 µM (inactive) | > 30 µM (inactive) | Cn1cc(-c2cnc3ccc4ccc(CS(=O)(=O)NCc5ccccn5)cc4c(=O)c3c2)cn1 [MK-8033] |
| > 30 µM (inactive) | > 30 µM (inactive) | > 30 µM (inactive) | > 30 µM (inactive) | 2.68 µM | > 30 µM (inactive) | > 30 µM (inactive) | Cn1cc(-c2cnn3c(N)c(Br)c([C@@H]4CCCNC4)nc23)cn1 [SCH-900776] |

Second part, the compound before the results:

| Compound | Kd [1] | Kd (Ephrin type-B receptor 6) | Kd [2] | Kd [3] | Kd [4] | Kd (Ephrin type-B receptor 2) | Kd [5] |
| --- | --- | --- | --- | --- | --- | --- | --- |
| Cc1cccc(-c2nn3c(c2-c2ccnc4ccc(C(N)=O)cc24)CCC3)n1 [GALUNISERTIB] | > 30 µM (inactive) | > 30 µM (inactive) | > 30 µM (inactive) | > 30 µM (inactive) | > 30 µM (inactive) | > 30 µM (inactive) | > 30 µM (inactive) |
| O=C(Nc1cc(C(F)(F)F)cc(C(F)(F)F)c1)c1cc(Cl)ccc1O [IMD-0354] | > 30 µM (inactive) | > 30 µM (inactive) | > 30 µM (inactive) | > 30 µM (inactive) | > 30 µM (inactive) | > 30 µM (inactive) | > 30 µM (inactive) |
| CNC(=O)c1cccc2cc(Oc3ccnc4cc(OCC5(N)CC5)c(OC)cc34)ccc12 [LUCITANIB] | > 30 µM (inactive) | > 30 µM (inactive) | > 30 µM (inactive) | > 30 µM (inactive) | > 30 µM (inactive) | > 30 µM (inactive) | > 30 µM (inactive) |
| CNC(=O)c1nn(C)c2c1C(C)(C)Cc1cnc(Nc3ccc(N4CCN(C)CC4)cc3)nc1-2 [MILCICLIB] | > 30 µM (inactive) | > 30 µM (inactive) | > 30 µM (inactive) | 2.96 µM (active) | > 30 µM (inactive) | 0.767 µM (active) | > 30 µM (inactive) |
| FC(F)(F)c1ccc(/C=C/c2nc(COc3ccc(CCCCn4ccnn4)cc3)co2)cc1 [MUBRITINIB] | > 30 µM (inactive) | > 30 µM (inactive) | > 30 µM (inactive) | > 30 µM (inactive) | > 30 µM (inactive) | > 30 µM (inactive) | > 30 µM (inactive) |
| COc1ncc(-c2ccc3nccc(-c4ccnnc4)c3c2)cc1NS(=O)(=O)c1ccc(F)cc1F [OMIPALISIB] | > 30 µM (inactive) | > 30 µM (inactive) | > 30 µM (inactive) | > 30 µM (inactive) | > 30 µM (inactive) | > 30 µM (inactive) | > 30 µM (inactive) |
| Cc1cnc(NC(=O)Nc2cc(Br)c(C)cc2OC[C@@H]2CNCCO2)cn1 [RABUSERTIB] | > 30 µM (inactive) | > 30 µM (inactive) | > 30 µM (inactive) | > 30 µM (inactive) | > 30 µM (inactive) | > 30 µM (inactive) | > 30 µM (inactive) |
| CO[C@H]1C[C@@H]2CC[C@@H](C)[C@@](O)(O2)C(=O)C(=O)N2CCCC[C@H]2C(=O)O[C@H]([C@H](C)C[C@@H]2CC[C@@H](OP(C)(C)=O)[C@H](OC)C2)CC(=O)[C@H](C)/C=C(\C)[C@@H](O)[C@@H](OC)C(=O)[C@H](C)C[C@H](C)/C=C/C=C/C=C/1C [RIDAFOROLIMUS] | > 30 µM (inactive) | > 30 µM (inactive) | > 30 µM (inactive) | > 30 µM (inactive) | > 30 µM (inactive) | > 30 µM (inactive) | > 30 µM (inactive) |
| N#CC1(c2ccc(NC(=O)c3cccnc3NCc3ccncc3)cc2)CCCC1 [RIVOCERANIB] | > 30 µM (inactive) | > 30 µM (inactive) | > 30 µM (inactive) | > 30 µM (inactive) | > 30 µM (inactive) | > 30 µM (inactive) | > 30 µM (inactive) |
| CN1CCN(CCOc2cc(OC3CCOCC3)c3c(Nc4c(Cl)ccc5c4OCO5)ncnc3c2)CC1 [SARACATINIB] | > 30 µM (inactive) | 3.6 µM (active) | > 30 µM (inactive) | > 30 µM (inactive) | > 30 µM (inactive) | 9.42 µM (active) | > 30 µM (inactive) |
| CO[C@H]1C[C@@H]2CC[C@@H](C)[C@@](O)(O2)C(=O)C(=O)N2CCCC[C@H]2C(=O)O[C@H]([C@H](C)C[C@@H]2CC[C@@H](O)[C@H](OC)C2)CC(=O)[C@H](C)/C=C(\C)[C@@H](O)[C@@H](OC)C(=O)[C@H](C)C[C@H](C)/C=C/C=C/C=C/1C [SIROLIMUS] | > 30 µM (inactive) | > 30 µM (inactive) | > 30 µM (inactive) | > 30 µM (inactive) | > 30 µM (inactive) | > 30 µM (inactive) | > 30 µM (inactive) |
| CO[C@H]1C[C@@H]2CC[C@@H](C)[C@@](O)(O2)C(=O)C(=O)N2CCCC[C@H]2C(=O)O[C@H]([C@H](C)C[C@@H]2CC[C@@H](OC(=O)C(C)(CO)CO)[C@H](OC)C2)CC(=O)[C@H](C)/C=C(\C)[C@@H](O)[C@@H](OC)C(=O)[C@H](C)C[C@H](C)/C=C/C=C/C=C/1C [TEMSIROLIMUS] | > 30 µM (inactive) | > 30 µM (inactive) | > 30 µM (inactive) | > 30 µM (inactive) | > 30 µM (inactive) | > 30 µM (inactive) | > 30 µM (inactive) |
